Assay results as given in US20260216362A1, “ANTI-BDCA2 ANTIBODY-DRUG CONJUGATE AND USE THEREOF” (DUALITY BIOLOGICS (SHANGHAI) CO., LTD., priority 2022, published 2026).

Assays:
[1] = tested on: human peripheral blood mononuclear cells; experiment: Inhibition of R848-induced TNF-α production from human peripheral blood mononuclear cells by BDCA2-ADC; assay type: cell-based; conditions: 5 μM R848, 24 h
Experimental: The inhibitory effects of the antibody-drug conjugate molecules of the present application on the production from peripheral blood mononuclear cells were detected. Peripheral blood mononuclear cells produce a large number of cytokines after the stimulation of the TLR7/8 agonist R848. The peripheral blood mononuclear cells were treated in vitro with the BDCA2 antibody-drug conjugate at different concentrations, and IFNα and TNFα produced by the peripheral blood mononuclear cells were quantitatively detected after the stimulation of 5 μM R848 for a certain period of time. The in vitro activity of the ligand-drug conjugates was evaluated based on the extent of cytokine inhibition.
The cryopreserved human peripheral blood mononuclear cells were thawed, resuspended in a complete culture medium and counted, and the cell suspension was adjusted to 2.5×10^6 cells/mL with the culture medium and cultured overnight. […] The supernatant was collected, and the TNF-α and IFN-α concentration levels in the supernatant were detected using an ELISA kit. Dose-response data were fitted to an S-shaped curve using non-linear regression, and IC50 values were calculated.
TNF-α concentration assay was performed using a Dakewe TNF-α ELISA kit (Cat. No. 1117202). […] The reading at wavelength 450 nm was detected using an M2e instrument within 10 min after the termination. […]

[2] = tested on: cynomolgus monkey whole blood stimulated with CpG-A; experiment: IFN-α after in vitro CpG-A stimulation of whole blood of dosed cynomolgus monkeys; assay type: in vivo; conditions: 10 mg/kg i.v.; CpGA-stimulated whole blood
Experimental: Cytokine expression was detected by whole blood stimulation in vitro.
The cells were cultured at 37° C. for 18 h, and the supernatant was collected. The TNF-α and IFN-α concentration levels in the supernatant were detected using an ELISA kit.
IFN-α concentration assay was performed using a Mabtech Human IFN-α (pan specific) ELISA kit (Cat. No. 3425-1H-20). 50 μL of serially diluted cytokine standard was added to each standard well, 50 μL of test sample was added to each sample well, and 50 μL of PBS was added to each blank control well. The cells were incubated at 37° C. for 2 h. The plate was washed 3 times, the liquid in each well was removed, and 300 µL of 1× PBST buffer working solution was added to each well; and after 1 minute of residence, the liquid in each well was discarded. 100 μL of detection antibody working solution was added to each well, and the cells were incubated at 37° C. for 1 h. […] The reading at wavelength 450 nm was detected using a Molecular device spectra max plus384 instrument within 10 min after the reaction was stopped.
Evaluation criteria in FIGS. 12-13: the average expression level changes of IFNα/TNFα were evaluated after in vitro stimulation of the whole blood with CpGA at 200 μg/mL on days 0-33 after administration. […]

In the case of “BIIB059: reference antibody specifically binding to BDCA2, sequence derived from U.S. Pat. No. 9,902,775B2; SEQ ID NO: 25 and 26 [reference compound]”, the “inhibitory effect on TNF-α secretion” value [1] is reported as “did not have an inhibitory effect” and the “IFN-α expression level compared to the blank control group” value [2] is reported as “reduced”.
